Drawing on patent US20150224058A1, “FORMULATIONS OF FLIBANSERIN” (Sprout Pharmaceuticals Inc., priority 2008, published 2015), this text covers solubility for one compound.

The series is described as follows: Solubility of flibanserin in aqueous media. It counts as physicochemical. Particulars: aqueous buffer; in phosphate buffer at pH 5.0. The source says: This marginal solubility at higher pH-values of flibanserin makes it difficult to develop extended release dosage forms or in some case even immediate release dosage forms for the following reasons. There is a natural pH gradient from the acidity of the stomach where the pH of physiological fluids are typically around 1-2, through the weakly acidic duodenum to the virtually neutral environment of the small intestine where the pH is in the range of 5-8. There are however cases of non-acidic stomach conditions due to either low production of hydrochloric acid caused by the physiology of the patients (this percentage increases form about 2-10% in young patients to about 10 to 40% in elderly patients) or by coadministration of antacids such as basic agents, H2-blockers or proton pump inhibitors. In those cases dissolution of even immediate release formulations (IRE) may be incomplete in the stomach and absorption might be incomplete or at least delayed.
Within the meaning of the present invention, supersaturation occurs if the active ingredient remains in dissolved status at concentrations far above its saturation solubility in the same aqueous system. […]

A word on the solubility: it is the dissolved amount per volume that the medium holds. The low end stands for little dissolved substance, the high end for much dissolved substance.

≈ marks a conversion by molar mass, not a printed value.

Compound `O=c1[nH]c2ccccc2n1CCN1CCN(c2cccc(C(F)(F)F)c2)CC1` [Flibanserin, 1,3-dihydro-1-[2-[4-[3-(trifluoromethyl)phenyl]-1-piperazinyl]ethyl]-2H-benzimidazole-2-one] showed a solubility of 10 µg/mL (≈ 25.6 µM).
